Here are results for one compound from US20230176063A1, “PHOTOREACTIVE AND CLEAVABLE PROBES FOR TAGGING BIOMOLECULES” (Academia Sinica, priority 2020, published 2023).

This test deals with nucleolin. Briefly: photoselective tagging of nucleolin using azo probe. It counts as cell-based. The following applies: fixed U2OS cells. The protocol:
Nucleolin is a protein found in the nucleolus of eukaryotic cells and involved in the synthesis of ribosomes. Azo-probe 1 was conjugated to a secondary antibody by using BCN-NHS (CAS# 1516551-46-4) as additional linker between Azo-probe 1 and secondary antibody. A sample of U2OS cells was grown on a glass-bottom chamber slide and fixed with 2.4% PFA. The antibody conjugated with Azo-probe 1 was applied to the sample stained with anti-nucleolin antibody. The sample was exposed to 780 nm two-photon irradiation (200mW, 200 µs/pixel) to photocrosslink the light activated warhead to the antibody and subsequently incubated with 1 M sodium dithionite at room temperature for over 16 h to remove non-crosslinked probes. Neutravidin conjugated to Alexa Fluor 647 dye was added and the sample assayed for the Alexa Fluor 647. Alexa Fluor 647 is a bright, far-red-fluorescent dye with excitation ideally suited for the 594 nm or 633 nm laser lines. Results are shown in the top panel of FIG. 12B. A close-up view is shown in the top right side of FIG. 12B. […] A side view is shown in the bottom right of FIG. 12B.

For the compound `O=C(CCCC[C@@H]1SC[C@@H]2NC(=O)N[C@@H]21)N[C@@H](Cc1cn(CCOCCOCCOCCNC(=O)c2ccc(C(=O)c3ccccc3)cc2)nn1)C(=O)NCCc1ccc(O)c(/N=N/c2ccc(C(=O)ON3C(=O)CCC3=O)cc2)c1` [Azo-probe 1], the “Alexa Fluor 647 (Neutravidin) staining of tagged nucleolin” value (probe conjugated to secondary antibody via BCN-NHS, 780 nm two-photon irradiation (200mW, 200 µs/pixel), 1 M sodium dithionite over 16 h) was “characteristic nucleoli shape is observed”. Further, the “Alexa Fluor 647 (Neutravidin) staining of tagged nucleolin, control region” value (treated the same but not exposed to photoactivating light) was “No significant staining was observed”.
